Experimental data reported in patent publication US12643892B2, “Pyridazinone compounds for the treatment of neuromuscular diseases” (Edgewise Therapeutics, Inc., priority 2020, dated 2026).

Legend:
[1] = tested on: embryos from zebrafish model of DMD; conditions: FIG. 2, Li and Amer, PLoSONE, 2015; cited from earlier work
[2] = biological target: Skeletal Myofibril ATPase (Rabbit Psoas myofibrils); test: Skeletal Myofibril ATPase Assay; format: biochemical; conditions: PK/LDH-coupled NADH absorbance at 340 nm
Procedure, shortened: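 Rabbit psoas myofibril ATPase read through a PK-LDH coupled system, as NADH loss at 340 nm every 1.5-2 min for 1 h, in PIPES/CaCl2/EGTA pCa buffer at pH 7.0. Absorbance change normalized to 1% DMSO vehicle (100%) and no change (0%). IC50 from a four-parameter logistic fit with bottom constrained ≥0.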

Structure (SMILES)	IC50 [2] [µM]	protection of muscles from pathological muscle derangement [1]
Cc1ccc(S(=O)(=O)NCc2ccccc2)cc1 [BTS, N-benzyl-p-tolyl-sulfonamide]	–	protect muscles from pathological muscle derangement
Cc1cccc(-c2noc(-c3ccc(=O)n(Cc4ccc(C#N)nc4)c3)n2)c1 [Compound 103, 5-((2-oxo-5-(3-(m-tolyl)-1,2,4-oxadiazol-5-yl)pyridin-1(2H)-yl)methyl)picolinonitrile]	≤ 10	–
CC(C)NC(=O)Cn1nc(-c2cccs2)ccc1=O [Compound 49, N-isopropyl-2-(6-oxo-3-(thiophen-2-yl)pyridazin-1(6H)-yl)acetamide]	> 100	–
O=c1ccc(-c2nc(-c3cccc(Cl)c3)no2)cn1Cc1cncnc1 [Compound 85, 5-(3-(3-chlorophenyl)-l,2,4-oxadiazol-5-yl)-1-(pyrimidin-5-ylmethyl)pyridin-2(1H)-one]	≤ 10	–
COc1ccccc1NC(=O)Cn1nc(-c2cccs2)ccc1=O [Compound 40, N-(2-methoxypheny1)-2-(6-oxo-3-(thiophen-2-yl)pyridazin-1(6H)-yl)acetamide]	10 to 100	–
O=c1ccc(-c2nc(-c3ccc(Cl)cc3)no2)cn1Cc1ccc(Cl)cc1 [Compound 122, 1-(4-chlorobenzyl)-5-(3-(4-chlorophenyl)-1,2,4-oxadiazol-5-yl)pyridin-2(1H)-one]	> 120	–
O=C(Cn1nc(-c2cccs2)ccc1=O)Nc1ccccc1F [Compound 41, N-(2-fluorophenyl)-2-(6-oxo-3-(thiophen-2-yl)pyridazin-1(6H)-yl)acetamide]	10 to 100	–
O=C(Cn1nc(-c2nnc(-c3ccccn3)s2)ccc1=O)NC1CCC1 [Compound 22, N-cyclobutyl-2-(6-oxo-3-(5-(pyridin-2-yl)-1,3,4-thiadiazol-2-yl)pyridazin-1(6H)-yl)acetamide]	≤ 10	–

Second part, led by results:

IC50 [2] [µM]	Structure (SMILES)	protection of muscles from pathological muscle derangement [1]
10 to 100	Cc1noc(-c2ccc(=O)n(Cc3ccc(F)cc3)n2)n1 [Compound 69, 2-(4-fluorobenzyl)-6-(3-methyl-1,2,4-oxadiazol-5-yl)pyridazin-3(2H)-one]	–
10 to 100	Cc1noc(-c2ccc(=O)n(Cc3cccc(F)c3)n2)n1 [Compound 72, 2-(3-fluorobenzyl)-6-(3-methyl-1,2,4-oxadiazol-5-yl)pyridazin-3(2H)-one]	–
≤ 10	CCC(C)(C)NC(=O)Cn1nc(-c2ccc(C)s2)ccc1=O [Compound 82, 2-(3-(5-methylthiophen-2-yl)-6-oxopyridazin-1(6H)-yl)-N-(tert-pentyl)acetamide]	–
> 100	Cc1ccc(-c2noc(-c3ccc(=O)n(Cc4cccc(F)c4)n3)n2)cc1 [Compound 71, 2-(3-fluorobenzyl)-6-(3-(p-tolyl)-1,2,4-oxadiazol-5-yl)pyridazin-3(2H)-one]	–
10 to 100	CCCn1nc(-c2nc(COc3ccccc3)no2)ccc1=O [Compound 77, 6-(3-(phenoxymethyl)-1,2,4-oxadiazol-5-yl)-2-propylpyridazin-3(2H)-one]	–
10 to 100	O=c1ccc(-c2nc(-c3cccnc3)no2)nn1Cc1ccccc1F [Compound 68, 2-(2-fluorobenzyl)-6-(3-(pyridin-3-yl)-1,2,4-oxadiazol-5-yl)pyridazin-3(2H)-one]	–
≤ 10	CCNC(=O)Cn1nc(-c2nc(-c3cc(F)cc(F)c3)no2)ccc1=O [Compound 9, 2-(3-(3-(3,5-difluorophenyl)-1,2,4-oxadiazol-5-yl)-6-oxopyridazin-1(6H)-yl)-N-ethylacetamide]	–
